Assay results as given in patent US9067922B2, “Chemical compounds” (Pfizer Limited, priority 2013, dated 2015).

The compounds below were run against URAT-1 transporter (Homo sapiens (Human), UniProt Q96S37) (assay: URAT-1 inhibitor activity: [14C]-uric acid uptake in CHO-URAT1(L)GFP#8 (CHO#8) cells, scintillation proximity). Settings: not given.
Type: cell-based
How it was run: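 CHO cells stably expressing human URAT1 long isoform–eGFP fusion, pre-incubated 1 h in chloride-containing buffer pH 7.4, then given 30 nM [14C]-uric acid with compound (0–10 μM, 0.25% DMSO) in chloride-free gluconate buffer pH 7.4. Uptake measured by scintillation proximity on Cytostar plates.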

Sequence of URAT-1 transporter (Q96S37 other isoform, or with tags, fused parts or gaps): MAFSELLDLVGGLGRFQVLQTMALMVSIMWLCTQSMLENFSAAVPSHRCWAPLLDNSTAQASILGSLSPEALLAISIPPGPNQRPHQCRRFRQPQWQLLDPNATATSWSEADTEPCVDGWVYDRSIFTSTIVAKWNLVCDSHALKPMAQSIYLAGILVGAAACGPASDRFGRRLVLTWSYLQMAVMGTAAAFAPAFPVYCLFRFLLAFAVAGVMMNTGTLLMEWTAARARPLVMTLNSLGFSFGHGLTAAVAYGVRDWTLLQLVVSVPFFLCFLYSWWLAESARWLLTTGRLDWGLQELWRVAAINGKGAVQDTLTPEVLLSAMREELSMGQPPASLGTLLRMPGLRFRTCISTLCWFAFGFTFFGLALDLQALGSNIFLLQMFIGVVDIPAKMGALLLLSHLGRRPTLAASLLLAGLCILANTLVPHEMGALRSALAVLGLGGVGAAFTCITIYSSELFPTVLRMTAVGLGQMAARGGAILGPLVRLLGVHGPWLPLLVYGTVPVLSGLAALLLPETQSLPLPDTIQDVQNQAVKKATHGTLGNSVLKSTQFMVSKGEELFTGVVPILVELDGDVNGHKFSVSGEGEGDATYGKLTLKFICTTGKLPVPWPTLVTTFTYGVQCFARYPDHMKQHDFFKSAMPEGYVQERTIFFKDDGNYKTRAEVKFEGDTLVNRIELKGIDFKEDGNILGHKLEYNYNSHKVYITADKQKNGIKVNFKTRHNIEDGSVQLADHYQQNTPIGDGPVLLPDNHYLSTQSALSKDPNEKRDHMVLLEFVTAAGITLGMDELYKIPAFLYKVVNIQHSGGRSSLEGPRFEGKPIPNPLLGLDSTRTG

IC50 [nM] | SMILES
21 | [2H]c1c(Oc2ccc(S(=O)(=O)Nc3ccc(F)cn3)c(F)c2)c([2H])c(C([2H])([2H])[2H])c(C#N)c1C([2H])([2H])[2H] [Example 249]

Same assay, conditions: inhibition of [14C]-uric acid (30 nM) uptake into CHO#8 cells; compound 0 to 10 μM; 4 parameter logistic fit

SMILES | IC50 [nM]
CC(C)(C)c1ccc(Oc2ccc(S(=O)(=O)Nc3ccc(F)cn3)cc2C#N)c(Cl)c1 [Example 127, 4-(4-tert-butyl-2-chlorophenoxy)-3-cyano-N-(5-fluoropyridin-2-yl)benzenesulfonamide] | > 10000
N#Cc1c(Cl)cccc1Oc1ccc(S(=O)(=O)Nc2cnccn2)cc1 [Example 223, 4-(3-chloro-2-cyanophenoxy)-N-(pyrazin-2-yl)benzenesulfonamide] | > 10000
N#Cc1cc(S(=O)(=O)Nc2ncccn2)ccc1Oc1ccc(F)c(F)c1 [compound 211] | > 3000
CC(C)(C)c1cccc(Oc2ccc(S(=O)(=O)Nc3ccc(F)cn3)cc2C#N)c1 [Example 129, 4-(3-tert-butylphenoxy)-3-cyano-N-(5-fluoropyridin-2-yl)benzenesulfonamide] | > 10000
COc1cc(Cl)ccc1Oc1ccc(S(=O)(=O)Nc2cccnn2)cc1Cl [Example 81, 3-chloro-4-(4-chloro-2-methoxyphenoxy)-N-(pyridazin-3-yl)benzenesulfonamide] | > 10000
COc1cc(F)ccc1Oc1ccc(S(=O)(=O)Nc2ccc(F)cn2)cc1C#N [Example 160, 3-cyano-4-(4-fluoro-2-methoxyphenoxy)-N-(5-fluoropyridin-2-yl)benzenesulfonamide] | > 10000
CCN(CC)c1cccc(Oc2ccc(S(=O)(=O)Nc3ccc(F)cn3)cc2C#N)c1 [Example 113, 3-cyano-4-[3-(diethylamino)phenoxy]-N-(5-fluoropyridin-2-yl)benzenesulfonamide] | > 10000
COc1cc(C)ccc1Oc1ccc(S(=O)(=O)Nc2ccc(F)cn2)cc1C#N [Example 140, 3-cyano-N-(5-fluoropyridin-2-yl)-4-(2-methoxy-4-methylphenoxy)benzenesulfonamide] | > 10000
N#Cc1cc(S(=O)(=O)Nc2ccc(F)cn2)ccc1Oc1c(Cl)cccc1C#N [Example 73, 4-(2-chloro-6-cyanophenoxy)-3-cyano-N-(5-fluoropyridin-2-yl)benzenesulfonamide] | 418
N#Cc1cc(S(=O)(=O)Nc2ccc(F)cn2)ccc1Oc1ccccc1Br [Example 189, 4-(2-bromophenoxy)-3-cyano-N-(5-fluoropyridin-2-yl)benzenesulfonamide] | 103
N#Cc1cc(S(=O)(=O)Nc2ccc(F)cn2)ccc1Oc1cc(Cl)ccc1Cl [Example 170, 3-cyano-4-(2,5-dichlorophenoxy)-N-(5-fluoropyridin-2-yl)benzenesulfonamide] | 570
CC(C)Oc1ccc(F)cc1Oc1ccc(S(=O)(=O)Nc2ccc(F)cn2)cc1C#N [Example 156, 3-cyano-4-[5-fluoro-2-(propan-2-yloxy)phenoxy]-N-(5-fluoropyridin-2-yl)benzenesulfonamide] | > 10000
CCOc1ccccc1Oc1ccc(S(=O)(=O)Nc2ccc(F)cn2)cc1C#N [Example 151, 3-cyano-4-(2-ethoxyphenoxy)-N-(5-fluoropyridin-2-yl)benzenesulfonamide] | > 10000
COc1cc(C#N)ccc1Oc1ccc(S(=O)(=O)Nc2ccc(F)cn2)cc1C#N [Example 204, 3-cyano-4-(4-cyano-2-methoxyphenoxy)-N-(5-fluoropyridin-2-yl)benzenesulfonamide] | > 10000
O=S(=O)(Nc1cccnn1)c1ccc(Oc2ccc(Cl)cc2OC(F)F)c(Cl)c1 [Example 84, 3-chloro-4-[4-chloro-2-(difluoromethoxy)phenoxy]-N-(pyridazin-3-yl)benzenesulfonamide] | > 8870
CSc1ccccc1Oc1ccc(S(=O)(=O)Nc2ccc(F)cn2)cc1C#N [Example 146, 3-cyano-N-(5-fluoropyridin-2-yl)-4-[2-(methylsulfanyl)phenoxy]benzenesulfonamide] | 506
Cc1cc(Oc2ccc(S(=O)(=O)Nc3ccc(F)cn3)cc2C#N)cc(C)c1C#N [compound 235, 3-cyano-4-({4-cyano-3,5-bis[methyl-D3]-2,3-D2-phenyl}oxy)-N-(5-fluoropyridin-2-yl)benzenesulfonamide] | 13
N#Cc1cncc(Oc2ccc(S(=O)(=O)Nc3ccc(F)cn3)cc2C#N)c1 [Example 206, 3-cyano-4-[(5-cyanopyridin-3-yl)oxy]-N-(5-fluoropyridin-2-yl)benzenesulfonamide] | 1080
N#Cc1ccc(Oc2ccc(S(=O)(=O)Nc3ccc(F)cn3)cc2C#N)cn1 [Example 205, 3-cyano-4-[(6-cyanopyridin-3-yl)oxy]-N-(5-fluoropyridin-2-yl)benzenesulfonamide] | 2630
N#Cc1ccc(Oc2ccc(S(=O)(=O)Nc3ccnnc3)cc2C#N)cc1Cl [Example 94, 4-(3-chloro-4-cyanophenoxy)-3-cyano-N-(pyridazin-4-yl)benzenesulfonamide] | > 10000
CC(C)COc1ccc(Oc2ccc(S(=O)(=O)Nc3ccc(F)cn3)cc2C#N)cn1 [Example 121, 3-cyano-N-(5-fluoropyridin-2-yl)-4-{[6-(2-methylpropoxy)pyridin-3-yl]oxy}benzenesulfonamide] | > 10000
N#Cc1cc(F)c(Oc2ccc(S(=O)(=O)Nc3ccc(F)cn3)cc2C#N)cc1F [Example 72, 3-cyano-4-(4-cyano-2,5-difluorophenoxy)-N-(5-fluoropyridin-2-yl)benzenesulfonamide] | 77
COc1ccc(Oc2ccc(S(=O)(=O)Nc3ccc(F)cn3)cc2C#N)c(Cl)c1 [Example 168, 4-(2-chloro-4-methoxyphenoxy)-3-cyano-N-(5-fluoropyridin-2-yl)benzenesulfonamide] | 612
Cc1ccc(Oc2ccc(S(=O)(=O)Nc3ccc(F)cn3)cc2C#N)cc1C#N [Example 59, 3-cyano-4-(3-cyano-4-methylphenoxy)-N-(5-fluoropyridin-2-yl)benzenesulfonamide] | > 10000
COc1cccc(Oc2ccc(S(=O)(=O)Nc3ccc(F)cn3)cc2C#N)c1C [Example 181, 3-cyano-N-(5-fluoropyridin-2-yl)-4-(3-methoxy-2-methylphenoxy)benzenesulfonamide] | > 10000
N#Cc1ccc(F)c(Oc2ccc(S(=O)(=O)Nc3ccc(F)cn3)cc2C#N)c1 [Example 69, 3-cyano-4-(5-cyano-2-fluorophenoxy)-N-(5-fluoropyridin-2-yl)benzenesulfonamide] | 1310

Second part, the compound after the results:

IC50 [nM] | SMILES
27 | N#Cc1cc(Cl)cc(Oc2ccc(S(=O)(=O)Nc3ccc(F)cn3)cc2C#N)c1 [Example 62, 4-(3-chloro-5-cyanophenoxy)-3-cyano-N-(5-fluoropyridin-2-yl)benzenesulfonamide]
141 | N#Cc1cc(S(=O)(=O)Nc2ccc(F)cn2)ccc1Oc1cccc(Cl)c1Cl [Example 3, 3-cyano-4-(2,3-dichlorophenoxy)-N-(5-fluoropyridin-2-yl)benzenesulfonamide]
174 | N#Cc1cc(Cl)ccc1Oc1ccc(S(=O)(=O)Nc2ccc(F)cn2)cc1C#N [Example 45, 4-(4-chloro-2-cyanophenoxy)-3-cyano-N-(5-fluoropyridin-2-yl)benzenesulfonamide]
57 | Cc1cc(Cl)c(Oc2ccc(S(=O)(=O)Nc3ccc(F)cn3)cc2C#N)cc1C#N [Example 26, 4-(2-chloro-5-cyano-4-methylphenoxy)-3-cyano-N-(5-fluoropyridin-2-yl)benzenesulfonamide]
429 | N#Cc1ccc(Oc2ccc(S(=O)(=O)Nc3cccnn3)cc2C#N)cc1F [Example 88, 3-cyano-4-(4-cyano-3-fluorophenoxy)-N-(pyridazin-3-yl)benzenesulfonamide]
209 | Cc1ccc(Oc2ccc(S(=O)(=O)Nc3ccc(F)cn3)cc2C#N)cc1Cl [Example 22, 4-(3-chloro-4-methylphenoxy)-3-cyano-N-(5-fluoropyridin-2-yl)benzenesulfonamide]
148 | Cc1cc(Cl)ccc1Oc1ccc(S(=O)(=O)Nc2ccc(F)cn2)cc1C#N [Example 5, 4-(4-chloro-2-methylphenoxy)-3-cyano-N-(5-fluoropyridin-2-yl)benzenesulfonamide]
88 | N#Cc1cc(S(=O)(=O)Nc2ccc(F)cn2)ccc1Oc1ccc(Cl)cc1 [Example 20, 4-(4-chlorophenoxy)-3-cyano-N-(5-fluoropyridin-2-yl)benzenesulfonamide]
126 | N#Cc1ccnc(NS(=O)(=O)c2ccc(Oc3ccc(F)c(Cl)c3)c(C#N)c2)c1 [compound 229]
122 | Cc1ccc(C)c(Oc2ccc(S(=O)(=O)Nc3ccc(F)cn3)cc2C#N)c1 [Example 158, 3-cyano-4-(2,5-dimethylphenoxy)-N-(5-fluoropyridin-2-yl)benzenesulfonamide]
125 | N#Cc1cc(S(=O)(=O)Nc2ccc(F)cn2)ccc1Oc1cc(F)cc(F)c1 [Example 11, 3-cyano-4-(3,5-difluorophenoxy)-N-(5-fluoropyridin-2-yl)benzenesulfonamide]
13 | N#Cc1ccc(Oc2ccc(S(=O)(=O)Nc3ccc(F)cn3)cc2C#N)cc1Cl [Example 1, 4-(3-chloro-4-cyanophenoxy)-3-cyano-N-(5-fluoropyridin-2-yl)benzenesulfonamide]
155 | N#Cc1cc(S(=O)(=O)Nc2ccc(F)cn2)ccc1Oc1cnc(C#N)c(Cl)c1 [Example 68, 4-[(5-chloro-6-cyanopyridin-3-yl)oxy]-3-cyano-N-(5-fluoropyridin-2-yl)benzenesulfonamide]
218 | N#Cc1cc(S(=O)(=O)Nc2ccc(F)cn2)ccc1Oc1cccc(F)c1F [Example 16, 3-cyano-4-(2,3-difluorophenoxy)-N-(5-fluoropyridin-2-yl)benzenesulfonamide]
244 | N#Cc1ccc(Oc2ccc(S(=O)(=O)Nc3ccc(F)cn3)cc2Cl)cc1F [compound 228]
171 | N#Cc1cc(S(=O)(=O)Nc2ccc(F)cn2)ccc1Oc1ccccc1C(F)(F)F [Example 51, 3-cyano-N-(5-fluoropyridin-2-yl)-4-[2-(trifluoromethyl)phenoxy]benzenesulfonamide]
